ChEMBL document CHEMBL1140501, “Validation of an automated procedure for the prediction of relative free energies of binding on a set of aldose reductase inhibitors” (Bioorg Med Chem, 2007)

These molecules were tested against Aldo-keto reductase family 1 member B1 (Homo sapiens, UniProt P15121) (assay: Inhibition of aldose reductase).
In the case of `O=C(O)Cc1nn(Cc2nc3ccc(C(F)(F)F)cc3s2)c(=O)c2ccccc12`, the IC50 is reported as 0.0031 µM.
`O=C(O)Cc1c(Cl)cccc1Cl` showed an IC50 of 4.4 µM.
For `Cc1ccccc1CC(=O)Nc1cc(C)c(S(=O)(=O)NCC(=O)O)c(C)c1`, the IC50 was 0.108 µM.
Work on `O=C(O)COc1ccccc1C(=O)NCc1ccc(Br)cc1F` yielded an IC50 of 0.176 µM.
With `O=C1C[C@@]2(C(=O)N1)C(=O)N(Cc1ccc(Br)cc1F)C(=O)c1cccn12` the IC50 was 0.015 µM.
For `O=C1C[C@]2(C(=O)N1)C(=O)N(Cc1ccc(Br)cc1F)C(=O)c1cccn12`, the IC50 was 0.19 µM.
`O=C(O)COc1cc(F)ccc1C(=S)NCc1ccc(Br)cc1F` showed an IC50 of 0.03 µM.
With `O=C(O)Cc1ccccc1` [PHENYLACETIC ACID] the IC50 was 96 µM.
`O=C(O)Cc1nn(Cc2ccc(Br)cc2F)c(=O)c2ccccc12` [PONALRESTAT] gave an IC50 of 0.0565 µM.
`O=C(O)Cn1c(=O)n(Cc2ccc(Br)cc2F)c(=O)c2ccc(Cl)cc21` [ZENARESTAT] showed an IC50 of 0.044 µM.
